Patent US20030208035A1, “Antifungal and/or antibacterial peptides, preparation methods, compositions containing same and methods of treating mammals and/or plants” (priority 2000, published 2003)
Bridges are numbered along the chain shown (N, C = ends). Where no end group is shown, it is not given here.

Legend:
Neurospora crassa = assay type: cell-based; conditions: 48 h
Method: (§1) 100 μl of peptide dilutions (concentration 50 with 0.097 mg/ml peptide) were deposited in microtitration plates.
(§2) After adding 100 μl of frozen spores with 10^4 spores/ml of A. brassicola and N. crassa (donated by Dr. Bullet, IBMC, Strasbourg) the test plates were incubated 48 h at 30° C.
(§3) Determination of minimal inhibiting concentrations (MIC) was made by observing well cover rate. The MIC was set at 50% well covering.

Alternaria brassicola = assay type: cell-based; conditions: 48 h
Method: as §1, §2, §3

[1] = system: Candida albicans (IHEM 8060 strain); experiment: Candida albicans infected model, lethal in mice (disseminated candidiasis); assay type: in vivo; conditions: for mice alive on day 7 (out of 10): placebo 5 alive; for time of onset of the 1st death: placebo day 2.5; for effect on mouse survival relative to placebo treatment: 3.10^6 CFU, three i.v. injections, 10 mice of 15 g; for effect on mouse survival relative to placebo treatment / morbidity score up to post-infection day 5 / median mortality, post-infection day / delay of onset of the 1st death: 5 mg/kg; for morbidity score up to post-infection day 5: placebo 1/50; for median mortality, post-infection day: placebo day 4; for delay of onset of the 1st death: placebo first deaths 2.5 days
Method: Heliomycin and its analogues were tested for in vivo antifungal activity in a model infected with Candida albicans, lethal in mice. The pathogenic agent Candida albicans (IHEM 8060 strain) was inoculated by intravenous route (i.v.) at a dose of 2.5×10^6 CFU/mouse. the peptides were administered by i.v. route in 4 injections 6 h, 24 h, 48 h and 72 h after infection. Assessment criteria for activity were evaluation of survival and morbidity at 7 days. The morbidity scores, which take into account general state of health (condition of fur, mobility, hydration) were determined for each mouse with values ranging from 0 to 5 and defined below: 0=dead, 1=moribund, 2=very ill, 3=ill, 4=slightly ill, 5=healthy. The sum of the individual scores was calculated for each group, a score of 50 for a group of 10 mice meaning that all the mice were healthy.
Following a standard protocol, groups of 10 Swiss OF1 male mice weighing 12 g were infected via i.v. route with a dose of 2.5×10^6 CFU/mouse. Heliomycin and Ard1 were administered by i.v. route in 4 injections, 6 h, 24 h, 48 h and 72 h after infection. For each peptide, 2 doses were tested: 10 mg/kg and 30 mg/kg. A placebo group was injected with peptide solvent, 0.9% sodium chloride.
In this experiment, inoculation of the mice with 2.5.10^6 CFU/mouse was 50% lethal at day 5 in the group which received placebo treatment. The first deaths occurred on post-infection day 2.5 and median mortality occurred on post-infection day 5. On day 7, 5 mice were alive and the morbidity score 15/50.
In this experiment, inoculation of Swiss OF1 mice weighing 15 g with 3.10^6 CFU of Candida albicans induces 50% mortality on day 4 after infection in the group treated with the placebo. The first deaths occur 2.5 days after infection, and 100% of the mice were dead on day 5.5.
In this experiment, inoculation of the mice with 2.5.10^6 CFU/mouse was 50% lethal at day 5 and 100% at day 8 for mice in the placebo group. The first death occurred 3 days after infection. The morbidity score fell rapidly below 30/50 (25/50 at day 2.5).
The pEM35 peptide was administered at doses of 10 and 30 mg/kg/injection with 3 daily doses for 4 days (1 h, 5 h and 10 h post-infection on day 0; at 8 h, 14 h and 20 h on days 1, 2 and 3), i.e., daily doses totalling 30 and 90 mg/kg.

Candida albicans = experiment: anti-Candida albicans growth inhibition test in liquid medium (96-well microplates); assay type: cell-based; conditions: fold relative to Ard1
Method: The anti-Candida albicans and anti-Aspergillus fumigatus activities of the different analogues were assessed using a growth inhibition test in liquid medium made in 96-well microplates. The activity of the purified peptides was tested for different dilutions of each peptide and was compared with those of heliomycin and Ard1 quantified under the same conditions.
The activity test was made directly on yeasts derived from a stock frozen at −80° C., in Sabouraud medium containing 15% glycerol. The density of the yeasts in the stock was adjusted to an optical density of 0.4 OD at 600 nm. After slow thawing at room temperature, the yeast suspension was reduced by dilution to an optic density of 1 mOD at 600 nm in Sabouraud medium, and 90 μl of this dilution were deposited in the wells of microtitration plates in the presence of 10 μl of sample to be tested. Control samples were systematically made in which 10 μl of sample were replaced by 10 μl of sterile water. Media sterility was controlled by incubating 10 μl sterile water in the presence of 90 μl of medium. The samples were incubated at 30° C. for 40 h under slight stirring and the antifungal activity was quantified by measuring optic density at 600 nm.

C. krusei = assay type: cell-based
Method: (§4) Candida yeasts (C. albicans, C. glabrata, C. dubliensis, C. tropicalis, C. kefyr, C. krusei and C. parapsilosis—donated by Dr. H. Koenig, Hôpital Civil, Strasbourg), fluconazole-resistant C. albicans (n^o245962, n^o2332, n^o246335 and n^o3552, donated by Drs. J.Meis and J. Mouton, University Hospital, Microbiology Department, Nijmegen, Netherlands), and Cryptoccocus neoformans (donated by Dr. H. Koenig, Hôpital Civil, Strasbourg) were seeded on Sabouraud-Cloramphenicol Agar slant gelose (Biomerieux) and left to incubate for 24 h at 30° C. (Candida sp.) and for 72 h at 37° C. (Cryptoccocus neoformans).
(§5) Some yeast colonies were placed in suspension in liquid Sabouraud medium (Biomerieux) to obtain a final concentration of 0.1 OD at 600 nm corresponding to 2.5.10^6 yeasts/ml.
(§6) The yeast suspension was adjusted to 5.10^3 yeast/ml in Sabouraud medium.
(§7) 100 μl of peptide dilutions (concentration of 50 with 0.097 μg/ml peptide) were deposited in microtitration plates. After adding […] of yeast suspension with 5.10^3 yeast/ml i.e. 500 yeasts, the test plates were incubated 24 h at 30° C. (Candida) under slow shaking or 72 h at 37° C. (Cryptoccocus).
(§8) Determination of minimal inhibiting concentrations (MIC) was made by measuring absorbency at 600 nm using a spectrophotometer-microtitration plate reader. The MIC score was set at a growth inhibition rate of 50%.

C. tropicalis = assay type: cell-based
Method: as §4, §5, §6, §7, §8

C. kefyr = assay type: cell-based
Method: as §4, §5, §6, §7, §8

C. glabrata = assay type: cell-based
Method: as §4, §5, §6, §7, §8

Cryptoccocus neoformans = assay type: cell-based; conditions: 72 h
Method: as §4, §5, §6, §7, §8

“DKLIGSCVWGAVNYTSNCNAECKRRGYKGGHCGSFANVNCWCQT (disulfide 7-32, 18-40, 22-42 (inferred)) [pEM31]” was tested, and the MIC (Neurospora crassa) was under 0.048 µg/mL, the MIC (Alternaria brassicola) was over 25 µg/mL and the “activity compared with Ard1” value ([1]; FIGS. 4-5, 10 mg/kg) was “more active than Ard1”. For the same sequence, the “morbidity score maintained for 5 days” value ([1]; FIGS. 4-5, 10 mg/kg) was “higher than 40/50”, the “mice alive on day 7 (out of 10)” value ([1]; FIGS. 4-5, 10 mg/kg) was 8 mice and the “time of onset of the 1st death” value ([1]; FIGS. 4-5, 10 mg/kg) was 5.5 days. The “effect on mouse survival relative to placebo treatment” value ([1]; FIGS. 6-7) was “does not significantly increase mouse survival”, the “effectiveness in the candidiasis infected model” value ([1]; FIGS. 6-7, dose 5 mg/kg) was “not effective” and the “Activity C.a. (relative activity in relation to Ard1)” value (Candida albicans) was 2. It also gave an MIC (C. krusei) of 3.125 µg/mL, an MIC (C. tropicalis) of 6.25 µg/mL and an MIC (C. kefyr) of over 25 µg/mL. The MIC (C. glabrata) was over 25 µg/mL and the MIC (Cryptoccocus neoformans) was 12.5 µg/mL.

In the case of “DKLIGSCVWGAVNYTSNCNAECKRRGYKGGHCGSFLNVNCWCET (disulfide 7-32, 18-40, 22-42 (inferred)) [pEM35]”, the MIC (Neurospora crassa) is reported as under 0.048 µg/mL, the MIC (Alternaria brassicola) is reported as over 25 µg/mL and the “survival rate on post-infection day 8” value ([1]; FIG. 8, 30 mg/kg/day (10 mg/kg/injection, 3 daily, 4 days), placebo 100% lethal day 8) is reported as 80%. For the same sequence, the “survival rate on post-infection day 8” value ([1]; FIG. 8, 90 mg/kg/day (30 mg/kg/injection, 3 daily, 4 days)) was 90%, the “morbidity score on day 8” value ([1]; FIG. 8, 30 and 90 mg/kg/day) was 30/50 and the “morbidity score until day 7” value ([1]; FIG. 8, 30 and 90 mg/kg/day) was “above 40/50”. The “activity compared with Ard1” value ([1]; FIGS. 4-5, 10 mg/kg) was “more active than Ard1”, the “mice alive on day 7 (out of 10)” value ([1]; FIGS. 4-5, 10 mg/kg) was 9 mice and the “time of onset of the 1st death” value ([1]; FIGS. 4-5, 10 mg/kg) was 7 days. The “morbidity score up to post-infection day 5” value ([1]; FIGS. 6-7) was 28/50, the “median mortality, post-infection day” value ([1]; FIGS. 6-7) was 6 days and the “delay of onset of the 1st death” value ([1]; FIGS. 6-7) was 1.5 days. For the same sequence, the “Activity C.a. (relative activity in relation to Ard1)” value (Candida albicans) was 4, the MIC (C. krusei) was 1.56 µg/mL and the MIC (C. tropicalis) was 1.56 µg/mL. It also gave an MIC (C. kefyr) of over 25 µg/mL, an MIC (C. glabrata) of over 25 µg/mL and an MIC (Cryptoccocus neoformans) of 6.25 µg/mL.

“DKLIGSCVWGAVNYTSNCNAECKRRGYKGGHCGSFLNVNCWCQT (disulfide 7-32, 18-40, 22-42 (inferred)) [pEM46]” was tested, and the MIC (Neurospora crassa) was 0.195 µg/mL, the MIC (Alternaria brassicola) was 25 µg/mL and the “effect on mouse survival relative to placebo treatment” value ([1]; FIGS. 6-7) was “does not significantly increase mouse survival”. For the same sequence, the “Activity C.a. (relative activity in relation to Ard1)” value (Candida albicans) was 4-8, the MIC (C. krusei) was 1.56 µg/mL and the MIC (C. tropicalis) was 3.125 µg/mL. The MIC (C. kefyr) was over 25 µg/mL, the MIC (C. glabrata) was over 25 µg/mL and the MIC (Cryptoccocus neoformans) was 6.25 µg/mL.

With “DKLIGSCVWGAVNYTSNCRAECKRRGYKGGHCGSFANVNCWCET (disulfide 7-32, 18-40, 22-42 (inferred)) [pEM51]” the MIC (Neurospora crassa) was 0.195 µg/mL, the MIC (Alternaria brassicola) was over 25 µg/mL and the “morbidity score up to post-infection day 5” value ([1]; FIGS. 6-7) was 11/50. The “median mortality, post-infection day” value ([1]; FIGS. 6-7) was 5 days, the “delay of onset of the 1st death” value ([1]; FIGS. 6-7) was 1.5 days and the “Activity C.a. (relative activity in relation to Ard1)” value (Candida albicans) was 2-4. It also gave an MIC (C. krusei) of 1.56 µg/mL, an MIC (C. tropicalis) of 3.125 µg/mL and an MIC (C. kefyr) of over 25 µg/mL. For the same sequence, the MIC (C. glabrata) was over 25 µg/mL and the MIC (Cryptoccocus neoformans) was 1.56 µg/mL.
